Laboratory results published in patent US10370324B2, “Phenyl and pyridinyl hydroxamic acids” (Acetylon Pharmaceuticals, Inc., priority 2016, dated 2019).

Assays:
[1] = Mouse pharmacokinetic studies; assay type: in vivo; conditions: male C57BL/6 mice, intraperitoneal 5 mg/kg; for Brain AUC: brain homogenate; for AUC / Kp: mouse, ip; for AUC: plasma; for Kp: from AUC values of brain and plasma, read-out: Brain/plasma ratio
Description: Male C57BL/6 mice were fasted overnight. Compounds were dissolved in dimethyl acetamide at 10 times the final concentration, then Solutol HS 15 (BASF) was added to a final concentration of 10%. Finally 80% saline was added and vortexed to achieve a clear solution. Fifteen animals were injected intraperitonealy with 5 mg/kg compound. Blood was collected by retro-orbital bleed at 5 minutes, 15 minutes, 30 minutes, 1 hour, 2 hours, 4 hours, 8 hours and 24 hours after dosing. At 5 minutes, 30 minutes, 1 hour and 4 hours after dosing three animals per time point were sacrificed and brains were removed. The blood was centrifuged at 2000 g for 5 minutes at 4° C. to obtain plasma. Brain samples were homogenized in PBS. The plasma and brain homogenate were extracted with acetonitrile and the level of compound was analyzed by LC/MS/MS. The level of compound in plasma was calculated from a standard curve in rat plasma and the level in brain was calculated from a standard curve in brain homogenate. The area under the curve in plasma and brain were calculated using WinNonLin software. The brain to plasma ratio was determined using the area under the curve values for the two compartments.

[2] = biological target: T1, HDAC1 (Homo sapiens, UniProt Q13547); experiment: HDAC enzyme assay, HDAC1; assay type: biochemical; conditions: 3.3 ng/ml enzyme, 16 μM tripeptide substrate; given as a range
T1 construct: purchased BPS Biosciences
Description: (§1) Compounds for testing were diluted in DMSO to 50 fold the final concentration and a ten-point three-fold dilution series was made. The compounds were diluted in assay buffer (50 mM HEPES, pH 7.4, 100 mM KCl, 0.001% Tween-20, 0.05% BSA, 20 ⊐M TCEP) to 6-fold their final concentration. The HDAC enzymes (purchased from BPS Biosciences) were diluted to 1.5-fold their final concentration in assay buffer. The tripeptide substrate and trypsin at 0.05 μM final concentration were diluted in assay buffer at 6-fold their final concentration. The final enzyme concentrations used in these assays were 3.3 ng/ml (HDAC1), 0.2 ng/ml (HDAC2), 0.08 ng/ml (HDAC3) and 2 ng/ml (HDAC6). The final substrate concentrations used were 16 μM (HDAC1), 10 μM (HDAC2), 17 μM (HDAC3) and 14 μM (HDAC6).
(§2) Five μL of compounds and 20 μL of enzyme were added to wells of a black, opaque 384 well plate in duplicate. Enzyme and compound were incubated together at room temperature for 10 minutes. Five μL of substrate was added to each well, the plate was shaken for 60 seconds and placed into a Victor 2 microtiter plate reader. The development of fluorescence was monitored for 60 min and the linear rate of the reaction was calculated. The IC50 was determined using Graph Pad Prism by a four parameter curve fit.

[3] = biological target: T2, HDAC6 (Homo sapiens, UniProt Q9UBN7); experiment: HDAC enzyme assay, HDAC6; assay type: biochemical; conditions: 2 ng/ml enzyme, 14 μM tripeptide substrate; given as a range
T2 construct: purchased BPS Biosciences
T2 sequence (Q9UBN7 1-1215): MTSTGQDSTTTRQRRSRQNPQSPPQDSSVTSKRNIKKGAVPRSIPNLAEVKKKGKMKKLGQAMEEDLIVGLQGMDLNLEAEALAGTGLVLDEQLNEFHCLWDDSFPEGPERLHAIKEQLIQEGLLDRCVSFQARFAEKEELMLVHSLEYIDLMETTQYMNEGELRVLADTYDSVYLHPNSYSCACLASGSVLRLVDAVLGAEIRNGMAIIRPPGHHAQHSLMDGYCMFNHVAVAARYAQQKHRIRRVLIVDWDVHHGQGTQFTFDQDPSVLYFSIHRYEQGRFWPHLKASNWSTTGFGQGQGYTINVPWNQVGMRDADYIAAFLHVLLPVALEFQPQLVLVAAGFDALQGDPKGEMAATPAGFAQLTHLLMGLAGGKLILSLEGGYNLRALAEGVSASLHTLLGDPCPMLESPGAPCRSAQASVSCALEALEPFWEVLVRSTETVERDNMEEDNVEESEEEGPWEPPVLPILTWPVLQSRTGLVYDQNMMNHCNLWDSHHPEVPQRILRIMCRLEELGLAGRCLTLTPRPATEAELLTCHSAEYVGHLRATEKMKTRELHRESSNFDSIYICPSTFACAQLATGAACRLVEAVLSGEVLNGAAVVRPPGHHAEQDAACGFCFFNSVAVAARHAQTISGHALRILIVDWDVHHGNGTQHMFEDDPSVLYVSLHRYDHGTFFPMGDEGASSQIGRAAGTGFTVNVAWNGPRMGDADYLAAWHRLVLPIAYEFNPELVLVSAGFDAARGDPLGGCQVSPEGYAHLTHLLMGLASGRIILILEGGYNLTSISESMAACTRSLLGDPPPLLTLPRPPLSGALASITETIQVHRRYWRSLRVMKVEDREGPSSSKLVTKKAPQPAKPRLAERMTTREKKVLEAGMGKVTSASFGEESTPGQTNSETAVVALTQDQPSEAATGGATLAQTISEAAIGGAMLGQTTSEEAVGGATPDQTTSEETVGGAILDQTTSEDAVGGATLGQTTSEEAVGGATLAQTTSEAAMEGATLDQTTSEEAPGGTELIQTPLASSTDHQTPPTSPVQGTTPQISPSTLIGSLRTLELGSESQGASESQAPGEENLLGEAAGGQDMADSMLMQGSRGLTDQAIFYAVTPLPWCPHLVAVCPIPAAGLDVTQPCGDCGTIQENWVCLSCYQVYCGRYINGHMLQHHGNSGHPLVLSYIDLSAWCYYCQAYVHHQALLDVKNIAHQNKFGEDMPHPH
Description: as §1, §2

[4] = biological target: T3, HDAC3 (Homo sapiens, UniProt O15379); experiment: HDAC enzyme assay, HDAC3; assay type: biochemical; conditions: 0.08 ng/ml enzyme, 17 μM tripeptide substrate; given as a range
T3 construct: purchased BPS Biosciences
Description: as §1, §2

[5] = biological target: T4, HDAC2 (Homo sapiens, UniProt Q92769); experiment: HDAC enzyme assay, HDAC2; assay type: biochemical; conditions: 0.2 ng/ml enzyme, 10 μM tripeptide substrate; given as a range
T4 construct: purchased BPS Biosciences
Description: as §1, §2

[6] = Rat pharmacokinetic studies; assay type: in vivo; conditions: male SD rats, IV 1 mg/kg, plasma
Description: Male SD rats were fasted overnight. Compounds of the invention were dissolved in dimethyl acetamide at 10 times the final concentration, then Solutol HS 15 (BASF) was added to a final concentration of 10%. Finally 80% saline was added and vortexed to achieve a clear solution. For the IV dosing three animals were injected via the foot dorsal vein with 1 mg/kg compound. For the PO dosing 5 mg/kg of compound was delivered by oral gavage. Blood was collected via the tail vein into K2EDTA tubes at 5 minutes, 15 minutes, 30 minutes, 1 hour, 2 hours, 4 hours, 8 hours and 24 hours after dosing. The blood was centrifuged at 2000 g for 5 minutes at 4° C. to obtain plasma. The plasma was extracted with acetonitrile and the level of compound was analyzed by LC/MS/MS. The level of compound in plasma was calculated from a standard curve in rat plasma. The IV clearance and area under the curve were calculated using WinNonLin software. The dose adjusted area under the curve for the IV and oral dosing were used to calculate the oral bioavailability.

T4 sequence (Q92769 whole entry): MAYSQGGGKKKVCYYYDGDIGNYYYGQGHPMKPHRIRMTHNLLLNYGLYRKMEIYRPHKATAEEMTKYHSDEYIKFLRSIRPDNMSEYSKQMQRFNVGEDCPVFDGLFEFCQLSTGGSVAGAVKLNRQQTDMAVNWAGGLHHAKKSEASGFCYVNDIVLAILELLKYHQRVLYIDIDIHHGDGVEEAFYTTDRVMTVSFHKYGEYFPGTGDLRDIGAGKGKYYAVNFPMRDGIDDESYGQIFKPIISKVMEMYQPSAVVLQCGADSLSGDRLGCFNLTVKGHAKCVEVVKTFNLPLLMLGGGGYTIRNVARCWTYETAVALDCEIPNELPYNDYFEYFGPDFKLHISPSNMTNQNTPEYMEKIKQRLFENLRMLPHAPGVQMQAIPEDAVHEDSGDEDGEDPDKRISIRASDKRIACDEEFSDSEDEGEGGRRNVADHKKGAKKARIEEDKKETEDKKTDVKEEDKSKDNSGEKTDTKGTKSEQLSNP
T1 sequence (Q13547 whole entry): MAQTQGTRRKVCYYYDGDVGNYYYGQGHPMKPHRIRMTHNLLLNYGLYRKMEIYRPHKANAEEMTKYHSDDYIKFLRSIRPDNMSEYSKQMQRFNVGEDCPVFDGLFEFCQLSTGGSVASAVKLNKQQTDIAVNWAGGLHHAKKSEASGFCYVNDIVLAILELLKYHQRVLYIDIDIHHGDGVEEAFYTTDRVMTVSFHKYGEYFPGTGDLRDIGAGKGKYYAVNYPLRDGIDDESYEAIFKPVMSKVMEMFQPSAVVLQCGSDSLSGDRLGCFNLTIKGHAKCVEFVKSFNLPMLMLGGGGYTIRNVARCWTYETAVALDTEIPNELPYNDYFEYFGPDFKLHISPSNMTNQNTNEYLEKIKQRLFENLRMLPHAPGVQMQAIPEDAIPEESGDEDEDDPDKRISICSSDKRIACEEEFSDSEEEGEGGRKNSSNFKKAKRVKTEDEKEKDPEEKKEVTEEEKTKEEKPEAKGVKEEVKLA
T3 sequence (O15379 whole entry): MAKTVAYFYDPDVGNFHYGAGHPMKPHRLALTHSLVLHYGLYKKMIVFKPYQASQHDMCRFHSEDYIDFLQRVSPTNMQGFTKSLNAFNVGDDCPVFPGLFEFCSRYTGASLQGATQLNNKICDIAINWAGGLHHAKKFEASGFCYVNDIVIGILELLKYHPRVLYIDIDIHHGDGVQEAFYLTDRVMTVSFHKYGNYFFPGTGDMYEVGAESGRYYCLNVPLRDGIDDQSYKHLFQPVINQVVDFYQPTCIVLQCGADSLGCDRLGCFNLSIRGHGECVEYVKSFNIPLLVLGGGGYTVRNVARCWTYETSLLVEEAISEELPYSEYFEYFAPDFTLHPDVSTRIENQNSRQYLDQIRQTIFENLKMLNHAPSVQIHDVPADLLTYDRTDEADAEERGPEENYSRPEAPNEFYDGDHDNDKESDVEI
T3 sequence (Q9Y618 395-489 partner limits assumed): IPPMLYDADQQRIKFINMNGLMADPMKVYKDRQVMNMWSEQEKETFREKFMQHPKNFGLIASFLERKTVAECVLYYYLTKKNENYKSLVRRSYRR

Row | Structure (SMILES) | Brain AUC [1] [ng·h/mL] | AUC [1] [ng·h/mL] | Kp [1] | IC50 [2] [nM] | IC50 [3] [nM] | IC50 [4] [nM] | IC50 [5] [nM] | clearance [6] [mL/min/kg]
1 | O=C(NO)c1ccc(N(c2ccccc2)c2ccccc2)cn1 [Compound 013] | 600 to 800 | 150 to 250 | 2 to 6 | – | – | – | – | –
2 | COc1ccc(F)cc1CNc1ccc(C(=O)NO)cc1 [Compound 005] | – | – | – | 500 to 800 | 1 to 6 | 500 to 800 | 500 to 800 | 167 to 333
3 | O=C(NO)c1ccc(NCc2cc(F)ccc2F)cc1 [Compound 007] | – | – | – | 450 to 600 | 4 to 8 | 700 to 800 | 450 to 600 | –
4 | O=C(NO)c1ccc(NC2(c3ccccc3)CCCCC2)cc1 [Compound 010] | – | – | – | 1000 to 2000 | 4 to 8 | 6000 to 7000 | 1500 to 2000 | 33.3 to 66.7
5 | O=C(NO)c1ccc(NC(c2ccccc2)c2ccccc2)cn1 [Compound 002] | 450 to 600 | 200 to 250 | 1 to 5 | – | – | – | – | –
6 | COc1ccc(OC)c(CNc2ccc(C(=O)NO)cc2)c1 [Compound 006] | – | – | – | 450 to 600 | 30 to 40 | 900 to 1100 | 900 to 1100 | –
7 | COc1ccc(Cl)cc1CNc1ccc(C(=O)NO)cc1 [Compound 001] | – | – | – | 200 to 400 | 1 to 6 | 200 to 400 | 200 to 400 | 16.7 to 83.3

The remaining lines, values ahead:

Row | Brain AUC [1] [ng·h/mL] | AUC [1] [ng·h/mL] | Kp [1] | IC50 [2] [nM] | IC50 [3] [nM] | IC50 [4] [nM] | IC50 [5] [nM] | clearance [6] [mL/min/kg] | Structure (SMILES)
8 | – | – | – | 50 to 100 | 0.5 to 2.5 | 400 to 500 | 250 to 350 | 50 to 117 | O=C(NO)c1ccc(NC2(c3ccccc3)CC2)cc1 [Compound 009]
9 | – | – | – | 100 to 200 | 4 to 8 | 100 to 200 | 100 to 200 | – | O=C(NO)c1ccc(NCc2cc(Cl)ccc2Cl)cc1 [Compound 004]
10 | – | – | – | 700 to 800 | 15 to 25 | 1200 to 1300 | 800 to 900 | 91.7 to 117 | O=C(NO)c1ccc(NCc2ccccc2)cc1 [Compound 011]
11 | – | – | – | 150 to 250 | 0.1 to 1 | 1000 to 1100 | 200 to 300 | 83.3 to 167 | O=C(NO)c1ccc(NC2(c3cc(F)ccc3F)CCOCC2)cc1 [Compound 008]
12 | 100 to 150 | 75 to 125 | 1 to 3 | – | – | – | – | – | O=C(NO)c1ccc(NCc2ccccc2)cn1 [Compound 012]
